Read-outs that look alike come from different tables or passages of the source. Ends that are not written are not given here.
Tests used:
[1] = test system: Staphylococcus epidermidis ATCC 12228; format: cell-based
Description: (§1) The method for peptide synthesis has been described in detail previously. E. coli ATCC 25922 (LB media), P. aeruginosa ATCC 15692 (NB+0.5% NaCl media), Listeria monocytogenes ATCC 3710 (LB media), Staphylococcus epidermidis ATCC 12228 (LB media), and S. aureus ATCC 29213 (TSB media) were obtained from the American Type Culture Collection (Manassas, VA, USA). Bacillus subtilis KCTC 1998 (LB media), Salmonella typhimurium KCTC 1926 (NB media), and Proteus vulgaris KCTC 2433 (NB media) were obtained from the Korean Collection for Type Cultures (Jeollabuk-do, Korea). E. coli CCARM 1238 was received from the Culture Collection of Antibiotic Resistant Microbes at Seoul Women’s University, Korea. Drug-resistant P. aeruginosa 3543, 3904, 3547, and 4007 and S. aureus 3126, 0027, 5157, 1635, 4761, 5159, 3359, 2122, 1630, 1870, 3511, 5156, and 3518 were resistant strains isolated from patients with otitis media in a Chonnam National University’s hospital.
(§2) The antibacterial activities of AMPs (melittin, clavaspirin, and its analogs) and conventional antibiotic drugs (erythromycin, gentamicin, ampicillin, and piperacidin) were determined using microdilution assays. Bacterial cells were cultured at 37° C in appropriate culture media at pH 5.5 or pH 7.4 until collection during the mid-log phase and suspended in 10 mM sodium phosphate buffer (pH 5.5 or pH 7.4) supplemented with 10% culture medium. Thereafter, 2× serial dilutions of each peptide (0.25–128 μM) or antibiotic (0.25–256 μM) were added to sterile 96-well plates, and aliquots of cell suspension (5 × 10^5 colony forming units (cfu)/mL) were seeded into each well. The samples were then incubated at 37° C for 24 h. At the end of the incubation, the minimum inhibitory concentrations (MICs) of the peptides were determined using a VERSA Max microplate reader (Molecular Devices Co., Sunnyvale, CA, USA) at a wavelength of 600 nm. […] MIC values were calculated as the mean of 3 independent experiments conducted in triplicate.

[2] = test system: Bacillus subtilis KCTC 1998; format: cell-based
Description: as §1, §2

[3] = test system: Listeria monocytogenes ATCC 3710; format: cell-based
Description: as §1, §2

E. coli ATCC 25922 = format: cell-based, Escherichia coli
Description: as §1, §2

[4] = test system: human red blood cells (hRBCs); test: Hemolysis; format: cell-based; conditions: PBS buffer containing 8% hRBCs, 1 h, 37° C, absorbance 414 nm, triplicate
Procedure: Fresh human red blood cells (hRBCs) from healthy donors were centrifuged at 800 × g and washed with phosphate-buffered saline (PBS) until the supernatant was clear. Twofold serial dilutions of the peptides in PBS were added to a 96-well plate, after which the hRBCs were added to obtain a final concentration of 8% (vol/vol). The samples were then incubated with mild agitation for 1 h at 37° C. The samples were then centrifuged at 800 × g for 10 min, and the absorbance of the supernatant was measured at 414 nm. All the measurements were performed in triplicate, and the percentages of hemolysis were calculated using equation 1: % hemolysis=[(A414 in peptide solution−A414 in PBS)/(A414 in […]−A414 in PBS)]×100 (1)
Where 100% hemolysis was defined as the absorbance measured from hRBCs exposed to 1% Triton X-100 and zero hemolysis was characterized using hRBCs alone in PBS [40].

[5] = C18 RP-HPLC retention time as measure of hydrophobicity; format: physicochemical; conditions: chromatographic, linear gradient of 10–60 acetonitrile containing 0.7% trifluoroacetic acid for 50 min, mean, used as measure of hydrophobicity
Procedure: Supplementary Table 1: Sequence, molecular mass, retention time, and hemolytic and cytotoxic activities of clavaspirin and its analogues
Designation Sequences Molecular Retention HC /HC a EC /EC b
The meanretention time was analyzed using C18 reversed phase-high-performance liquid chromatography (RP-HPLC).
Samples were run using a linear gradient of 10–60 acetonitrile, containing 0.7% trifluoroacetic acid for 50 min. aHemolytic activity was determined in PBS buffer containing 8% hRBCs. bEffective concentration in HaCaT cells was determined in DMEM buffer containing 10% FBS and 1% PS.

[6] = Aggregation assay (light scattering); format: physicochemical; conditions: 10 mM sodium phosphate buffer; for Self-aggregation: light scattering ex 400 nm / em 400 nm, 12 h, 37° C, mean of three experiments
Procedure: Light scattering assays were performed with clavaspirin and its analogue peptides using a Perkin-Elmer LS55 fluorometer. Peptides were dissolved in 10 mM sodium phosphate buffer (pH 5.5 or pH 7.4) and incubated for 12 h at 37° C. Light scattering was excited at 400 nm and the emission was scanned at 400 nm.

[7] = test system: Salmonella typhimurium KCTC 1926; format: cell-based
Description: as §1, with “Bacillus subtilis KCTC 1998 (LB media), Salmonella typhimurium KCTC 1926 (NB media), and Proteus vulgaris KCTC 2433 (NB media) were obtained from the Korean Collection for Type Cultures (Jeollabuk-do, Korea).” left out
as §2

[8] = test system: Proteus vulgaris KCTC 2433; format: cell-based
Description: as §1, with “Bacillus subtilis KCTC 1998 (LB media), Salmonella typhimurium KCTC 1926 (NB media), and Proteus vulgaris KCTC 2433 (NB media) were obtained from the Korean Collection for Type Cultures (Jeollabuk-do, Korea).” left out
as §2

[9] = pH 5.5 (I), 10 mM sodium phosphate buffer, 10% LB, 37° C, 24 h, mean of 3 experiments
[10] = pH 7.4 (II), 10 mM sodium phosphate buffer, 10% LB, 37° C, 24 h, mean of 3 experiments

Substance: FKRFIGSVKHGIGHLVHHIGVAL-NH2 [CSP-3]
- MIC, S. epidermidis ([1]; ATCC 12228, 24 h, pH 5.5): 4 µM
- MIC, S. epidermidis ([1]; ATCC 12228, 24 h, pH 7.4): 8 µM
- MIC, B. subtilis ([2]; KCTC 1998, 24 h, pH 5.5): 8 µM
- MIC, B. subtilis ([2]; KCTC 1998, 24 h, pH 7.4): 16 µM
- MIC, L. monocytogenes ([3]; ATCC 3710, 24 h, pH 5.5): 16 µM
- MIC, L. monocytogenes ([3]; ATCC 3710, 24 h, pH 7.4): 8 µM
- MIC, E. coli (E. coli ATCC 25922; ATCC 25922, 24 h, pH 5.5): 2 µM
- MIC, E. coli (E. coli ATCC 25922; ATCC 25922, 24 h, pH 7.4): 4 µM
- HC10 (hemolytic activity) [4]: > 400
- HC50 (hemolytic activity) [4]: > 400
- Retention time [5]: 21.4 min
- Self-aggregation ([6]; pH 7.4): aggregation increased
- MIC, S. typhimurium ([7]; KCTC 1926, 24 h, pH 5.5): 64 µM
- MIC, S. typhimurium ([7]; KCTC 1926, 24 h, pH 7.4): 4 µM
- MIC, P. vulgaris ([8]; KCTC 2433, 24 h, pH 5.5): 4 µM
- MIC, P. vulgaris ([8]; KCTC 2433, 24 h, pH 7.4): 8 µM

Substance: FLRFIGSVKHGKGHLVHHIGVAL-NH2 [CSP-4]
- MIC, S. epidermidis [1, 9]: 4 µM
- MIC, S. epidermidis [1, 10]: 8 µM
- MIC, B. subtilis [2, 9]: 4 µM
- MIC, B. subtilis [2, 10]: 4 µM
- MIC, L. monocytogenes [3, 9]: 4 µM
- MIC, L. monocytogenes [3, 10]: 4 µM
- MIC, E. coli (E. coli ATCC 25922; [9]): 2 µM
- MIC, E. coli (E. coli ATCC 25922; [10]): 4 µM
- HC10 (hemolytic activity) [4]: > 400
- HC50 (hemolytic activity) [4]: > 400
- Retention time [5]: 20.2 min
- Self-aggregation ([6]; pH 5.5): very little self-aggregation
- Effect of varying the pH on aggregation ([6]; pH 5.5 vs pH 7.4, light scattering): not affected
- Self-aggregation ([6]; pH 7.4): very little self-aggregation
- MIC, S. typhimurium [7, 9]: 64 µM
- MIC, S. typhimurium [7, 10]: 4 µM
- MIC, P. vulgaris [8, 9]: 4 µM
- MIC, P. vulgaris [8, 10]: 8 µM

Source: paper PMC5884652, “New antimicrobial peptide kills drug-resistant pathogens without detectable resistance” (Oncotarget, 2018)
